Measurements published in patent US9186360B2, “Treatment of respiratory disorders using TRPA1 antagonists” (GLENMARK PHARMACEUTICALS S.A., priority 2011, dated 2015).

Experiments:
Format in all cases: cell-based
[1] = target: human TRPA1 (Homo sapiens (Human), UniProt O75762); experiment: 45Calcium uptake assay, AITC induced, human TRPA1 expressing CHO cells; conditions: AITC 30 micromolar, read-out: IC50 values hTRPA1
Method: As contemplated herein, the IC50 value is measured by the following method. The inhibition of TRPA1 receptor activation is measured as inhibition of allylisothiocyanate (AITC) induced cellular uptake of radioactive calcium. Test solution of test compound is prepared in a suitable solvent using appropriate method. Human TRPA1 expressing CHO cells are grown in suitable medium. Cells are treated with test compounds followed by addition of AITC. Cells are washed and lysed. Radioactivity in the lysate is measured in Packard Top count after addition of liquid scintillant. The concentration response curves for compounds are plotted as a % of maximal response obtained in the absence of test antagonist, and the IC50 values are calculated from such concentration response curve by nonlinear regression analysis using GraphPad PRISM software.
The illustrative TRPA1 antagonists of the present invention were screened for TRPA1 activity according to a modified procedure described in Tóth, A. et al., Life Sciences 2003, 73, 487-498. The screening of the compounds can be carried out by other methods and procedures known to persons skilled in the art.
Screening for TRPA1 Antagonist Using the 45Calcium Uptake Assay:
The inhibition of TRPA1 receptor activation was measured as inhibition of allylisothiocyanate (AITC) induced cellular uptake of radioactive calcium. Test compounds were dissolved in DMSO to prepare 10 mM stock solution and then diluted using plain medium with 0.1% BSA and 1.8 mM CaCl2 to get desired concentration. Final concentration of DMSO in the reaction was 0.5% (v/v). Human TRPA1 expressing CHO cells were grown in F-12 DMEM medium with 10% FBS, 1% penicillin-streptomycin solution, and 400 μg/ml of G-418. Cells were seeded 24 h prior to the assay in 96 well plates so as to get ˜50,000 cells per well on the day of experiment. Cells were treated with test compounds for 10 min followed by addition of AITC at a final concentration of 30 micromolar and 5 μCi/ml 45Ca+2 for 3 min at 25° C. Cells were washed and lysed using buffer containing 1% Triton X-100, 0.1% deoxycholate and 0.1% SDS. Radioactivity in the lysate was measured in Packard Top count after addition of liquid scintillant.
Concentration response curves were plotted as a % of maximal response obtained in the absence of test antagonist. IC50 value was calculated from concentration response curve by nonlinear regression analysis using GraphPad PRISM software.

[2] = target: human TRPV3 (Homo sapiens (Human), UniProt Q8NET8); experiment: Radiometric calcium selectivity assay, CHO cells expressing human TRPV3 (2-aminoethoxydiphenyl borate); conditions: read-out: IC50 values hTRPV3
Chain of human TRPV3 (Q8NET8 whole entry): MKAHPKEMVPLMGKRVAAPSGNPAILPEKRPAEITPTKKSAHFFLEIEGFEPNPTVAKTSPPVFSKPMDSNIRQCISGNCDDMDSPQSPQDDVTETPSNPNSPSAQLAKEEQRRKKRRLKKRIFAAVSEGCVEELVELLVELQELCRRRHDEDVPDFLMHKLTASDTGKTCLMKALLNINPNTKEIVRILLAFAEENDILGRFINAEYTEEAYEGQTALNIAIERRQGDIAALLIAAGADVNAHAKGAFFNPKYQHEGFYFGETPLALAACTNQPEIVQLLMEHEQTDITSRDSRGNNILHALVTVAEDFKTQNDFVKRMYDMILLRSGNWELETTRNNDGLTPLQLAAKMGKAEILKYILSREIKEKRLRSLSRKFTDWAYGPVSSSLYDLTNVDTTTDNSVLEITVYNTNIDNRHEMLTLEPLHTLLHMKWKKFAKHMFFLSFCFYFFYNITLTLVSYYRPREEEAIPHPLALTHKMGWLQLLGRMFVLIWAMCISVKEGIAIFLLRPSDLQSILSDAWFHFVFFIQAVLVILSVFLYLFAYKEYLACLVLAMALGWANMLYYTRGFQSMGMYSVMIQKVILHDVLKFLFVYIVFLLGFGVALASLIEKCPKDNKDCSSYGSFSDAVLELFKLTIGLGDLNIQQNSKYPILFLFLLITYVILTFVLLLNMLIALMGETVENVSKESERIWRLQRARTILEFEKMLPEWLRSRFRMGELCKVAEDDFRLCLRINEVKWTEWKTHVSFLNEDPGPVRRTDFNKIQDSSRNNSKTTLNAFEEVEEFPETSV
Method: (§1) For selectivity screening, CHO cells stably expressing human TRPV1, human TRPV3, human TRPV4, or human TRPM8 were generated in-house and maintained in DMEM F-12 supplemented with 10% FBS and G418. All the cell types were cultured at 37° C. in humidified air containing 5% CO2. Radiometric calcium assay was performed as described above with some minor modifications. Assay was carried out in total volume of 200 μl at 30° C. (for TRPV1), 32° C. (for TRPV3) and 25° C. (for TRPV4 and TRPM8). Agonists used for selectivity screening of the different TRPs are: Capsaicin for TRPV1,2-aminoethoxydiphenyl borate for TRPV3, 4α-phorbol 12,13-didecanoate for TRPV4 and Icilin for TRPM8. After 2-5 minutes of agonist treatment, drug was washed and lysed in lysis buffer as mentioned above. Radioactivity in the lysate was measured in Packard Top count after addition of liquid scintillant.

[3] = target: human TRPV4 (Homo sapiens (Human), UniProt Q9HBA0); experiment: Radiometric calcium selectivity assay, CHO cells expressing human TRPV4 (4α-phorbol 12,13-didecanoate); conditions: read-out: IC50 values hTRPV4
Chain of human TRPV4 (Q9HBA0 whole entry): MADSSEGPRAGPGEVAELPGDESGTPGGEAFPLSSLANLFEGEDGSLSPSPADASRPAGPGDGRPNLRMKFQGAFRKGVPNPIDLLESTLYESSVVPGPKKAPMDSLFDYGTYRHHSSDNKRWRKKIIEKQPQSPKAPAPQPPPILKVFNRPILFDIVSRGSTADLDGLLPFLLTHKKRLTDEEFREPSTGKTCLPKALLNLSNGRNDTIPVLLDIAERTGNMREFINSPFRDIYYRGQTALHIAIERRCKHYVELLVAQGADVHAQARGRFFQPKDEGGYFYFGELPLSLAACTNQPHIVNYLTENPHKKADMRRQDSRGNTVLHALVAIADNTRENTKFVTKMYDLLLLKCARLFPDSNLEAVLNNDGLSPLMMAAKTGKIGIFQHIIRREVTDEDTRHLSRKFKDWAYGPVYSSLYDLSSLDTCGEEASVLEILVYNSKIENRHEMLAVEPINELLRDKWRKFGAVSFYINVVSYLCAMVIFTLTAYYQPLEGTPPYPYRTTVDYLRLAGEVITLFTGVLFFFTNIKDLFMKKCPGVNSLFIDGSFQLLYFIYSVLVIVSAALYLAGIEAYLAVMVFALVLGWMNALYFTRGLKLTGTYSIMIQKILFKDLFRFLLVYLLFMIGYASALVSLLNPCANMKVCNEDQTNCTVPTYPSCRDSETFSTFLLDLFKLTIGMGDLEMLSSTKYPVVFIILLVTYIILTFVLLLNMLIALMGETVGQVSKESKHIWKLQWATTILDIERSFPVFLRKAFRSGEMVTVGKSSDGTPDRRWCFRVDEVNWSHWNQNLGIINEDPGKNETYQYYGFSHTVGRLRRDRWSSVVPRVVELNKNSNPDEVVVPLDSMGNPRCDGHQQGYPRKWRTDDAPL
Method: as §1

[4] = target: human TRPM8 (Homo sapiens (Human), UniProt Q7Z2W7); experiment: Radiometric calcium selectivity assay, CHO cells expressing human TRPM8 (icilin); conditions: read-out: IC50 values hTRPM8
Chain of human TRPM8 (Q7Z2W7 whole entry): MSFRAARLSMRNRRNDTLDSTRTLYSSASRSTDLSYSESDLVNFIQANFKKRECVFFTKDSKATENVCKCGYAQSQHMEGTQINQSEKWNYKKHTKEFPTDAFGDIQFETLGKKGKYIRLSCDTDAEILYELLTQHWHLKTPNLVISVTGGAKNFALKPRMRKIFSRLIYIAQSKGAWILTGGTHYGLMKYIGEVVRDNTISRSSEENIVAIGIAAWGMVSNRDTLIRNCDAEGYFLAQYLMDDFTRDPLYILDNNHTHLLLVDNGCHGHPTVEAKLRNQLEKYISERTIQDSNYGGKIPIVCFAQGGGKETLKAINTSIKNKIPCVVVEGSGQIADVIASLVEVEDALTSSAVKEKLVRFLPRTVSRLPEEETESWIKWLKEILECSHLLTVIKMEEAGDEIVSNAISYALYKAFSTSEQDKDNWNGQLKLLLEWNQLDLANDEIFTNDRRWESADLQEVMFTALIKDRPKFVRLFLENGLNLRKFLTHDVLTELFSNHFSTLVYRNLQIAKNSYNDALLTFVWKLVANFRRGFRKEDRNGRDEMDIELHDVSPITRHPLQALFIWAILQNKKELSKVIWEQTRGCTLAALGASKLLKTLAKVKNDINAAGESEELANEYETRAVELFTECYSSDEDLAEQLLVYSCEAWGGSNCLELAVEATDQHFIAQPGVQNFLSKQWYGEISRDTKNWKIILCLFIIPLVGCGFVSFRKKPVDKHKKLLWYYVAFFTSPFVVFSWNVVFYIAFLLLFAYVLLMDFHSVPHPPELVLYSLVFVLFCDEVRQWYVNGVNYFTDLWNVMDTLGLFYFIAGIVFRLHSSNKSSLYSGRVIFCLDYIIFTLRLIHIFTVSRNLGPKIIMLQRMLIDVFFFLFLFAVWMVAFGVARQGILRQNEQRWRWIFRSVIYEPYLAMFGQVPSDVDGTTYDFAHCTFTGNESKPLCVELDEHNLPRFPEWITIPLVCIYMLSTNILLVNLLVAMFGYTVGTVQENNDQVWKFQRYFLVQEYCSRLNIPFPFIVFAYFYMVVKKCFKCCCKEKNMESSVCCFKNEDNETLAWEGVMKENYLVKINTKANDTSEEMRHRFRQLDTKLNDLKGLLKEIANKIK
Method: as §1

[5] = target: human TRPV1 (Homo sapiens (Human), UniProt Q8NER1); experiment: Radiometric calcium selectivity assay, CHO cells expressing human TRPV1 (capsaicin); conditions: read-out: IC50 values hTRPV1
Chain of human TRPV1 (Q8NER1 whole entry): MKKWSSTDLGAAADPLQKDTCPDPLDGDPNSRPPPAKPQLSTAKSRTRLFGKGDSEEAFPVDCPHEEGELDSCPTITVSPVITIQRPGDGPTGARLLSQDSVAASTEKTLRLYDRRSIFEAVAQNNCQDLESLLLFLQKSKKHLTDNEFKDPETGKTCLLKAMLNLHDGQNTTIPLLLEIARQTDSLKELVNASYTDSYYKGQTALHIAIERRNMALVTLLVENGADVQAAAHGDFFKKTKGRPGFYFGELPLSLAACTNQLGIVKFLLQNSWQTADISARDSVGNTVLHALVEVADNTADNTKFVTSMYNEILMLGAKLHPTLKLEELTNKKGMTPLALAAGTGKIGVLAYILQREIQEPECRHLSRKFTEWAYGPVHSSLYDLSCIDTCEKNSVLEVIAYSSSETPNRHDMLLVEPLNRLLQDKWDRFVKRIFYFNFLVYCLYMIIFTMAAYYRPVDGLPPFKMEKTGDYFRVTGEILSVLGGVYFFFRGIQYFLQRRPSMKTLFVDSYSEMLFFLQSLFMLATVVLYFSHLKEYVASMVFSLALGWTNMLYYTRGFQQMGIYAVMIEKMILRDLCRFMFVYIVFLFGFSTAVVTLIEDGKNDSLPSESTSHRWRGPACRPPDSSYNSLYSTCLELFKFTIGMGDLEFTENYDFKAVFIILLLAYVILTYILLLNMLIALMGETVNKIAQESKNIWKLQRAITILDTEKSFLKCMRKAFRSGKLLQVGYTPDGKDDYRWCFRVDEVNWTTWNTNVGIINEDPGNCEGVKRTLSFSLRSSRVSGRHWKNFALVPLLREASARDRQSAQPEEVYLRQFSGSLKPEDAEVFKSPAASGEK
Method: as §1

Chain of human TRPA1 (O75762 whole entry): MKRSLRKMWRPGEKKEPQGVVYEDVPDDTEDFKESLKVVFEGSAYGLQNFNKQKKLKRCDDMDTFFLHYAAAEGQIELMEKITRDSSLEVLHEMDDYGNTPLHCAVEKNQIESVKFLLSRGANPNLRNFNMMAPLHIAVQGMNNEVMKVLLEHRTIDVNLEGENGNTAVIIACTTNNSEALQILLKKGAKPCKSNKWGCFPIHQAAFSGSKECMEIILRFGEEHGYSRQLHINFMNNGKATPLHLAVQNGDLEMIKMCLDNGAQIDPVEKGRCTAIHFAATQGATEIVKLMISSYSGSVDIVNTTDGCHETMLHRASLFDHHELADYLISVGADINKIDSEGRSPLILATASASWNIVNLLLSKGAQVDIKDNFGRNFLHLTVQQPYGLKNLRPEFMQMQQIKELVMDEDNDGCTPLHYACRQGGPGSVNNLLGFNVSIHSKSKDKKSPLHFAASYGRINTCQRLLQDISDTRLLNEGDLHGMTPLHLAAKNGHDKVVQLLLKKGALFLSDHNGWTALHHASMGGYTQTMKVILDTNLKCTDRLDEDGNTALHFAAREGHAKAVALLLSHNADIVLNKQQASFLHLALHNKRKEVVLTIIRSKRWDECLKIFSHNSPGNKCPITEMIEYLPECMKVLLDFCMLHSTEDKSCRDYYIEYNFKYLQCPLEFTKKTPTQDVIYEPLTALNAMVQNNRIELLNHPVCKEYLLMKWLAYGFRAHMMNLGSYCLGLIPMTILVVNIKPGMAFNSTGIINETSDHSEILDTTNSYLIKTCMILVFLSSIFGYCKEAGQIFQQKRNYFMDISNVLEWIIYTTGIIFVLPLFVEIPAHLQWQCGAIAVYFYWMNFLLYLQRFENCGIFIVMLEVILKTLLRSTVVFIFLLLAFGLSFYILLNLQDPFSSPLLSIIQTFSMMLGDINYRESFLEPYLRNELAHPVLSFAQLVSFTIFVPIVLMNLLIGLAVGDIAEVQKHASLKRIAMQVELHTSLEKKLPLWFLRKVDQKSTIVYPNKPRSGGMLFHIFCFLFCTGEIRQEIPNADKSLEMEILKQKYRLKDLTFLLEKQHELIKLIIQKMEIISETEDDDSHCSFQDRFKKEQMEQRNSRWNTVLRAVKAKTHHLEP

IC50 [1] | IC50 [3] | Structure (SMILES) | IC50 [2] | IC50 [4] | IC50 [5]
73.3 nM | 969 nM | Cn1c(=O)c2c(CC(=O)Nc3nc(-c4ccc(Br)cc4)cs3)cccc2n(C)c1=O [Compound 3] | > 10000 nM | > 10000 nM | > 10000 nM
47.4 nM | 1870 nM | Cn1c(=O)c2c(CC(=O)Nc3nc(-c4cccc(C(F)(F)F)c4)cs3)cccc2n(C)c1=O [Compound 7] | 2100 nM | > 10000 nM | > 10000 nM
46.7 nM | > 10000 nM | Cn1c(=O)c2c(CC(=O)Nc3nc(-c4ccc(C5CCCCC5)cc4)cs3)cccc2n(C)c1=O [Compound 10] | > 10000 nM | > 10000 nM | > 10000 nM
46.3 nM | 1500 nM | Cn1c(=O)c2c(CC(=O)Nc3nc(-c4ccc(C(F)(F)F)cc4)cs3)cccc2n(C)c1=O [Compound 11] | > 10000 nM | > 10000 nM | > 10000 nM
5.06 nM | 1470 nM | Cn1c(=O)c2c(CC(=O)Nc3nc(-c4ccc(C(F)(F)F)c(F)c4)cs3)c(Cl)oc2n(C)c1=O [Compound 99] | – | – | –
5.15 nM | > 10000 nM | Cn1c(=O)c2c(CC(=O)Nc3nc(-c4cc(F)cc(C(F)(F)F)c4)cs3)c(Cl)oc2n(C)c1=O [Compound 100] | – | – | –
7.67 nM | 1350 nM | Cn1c(=O)c2c(CC(=O)Nc3nc(-c4ccc(OC(F)(F)F)c(F)c4)cs3)c(Cl)oc2n(C)c1=O [Compound 102] | – | – | –
27.4 nM | 4020 nM | Cn1c(=O)c2c(CC(=O)Nc3nc(-c4ccc(F)c(OC(F)(F)F)c4)cs3)c(Cl)oc2n(C)c1=O [Compound 103] | – | – | –
7.58 nM | 1810 nM | Cn1c(=O)c2c(CC(=O)Nc3nc(-c4ccc(C(F)(F)F)c(F)c4F)cs3)c(Cl)oc2n(C)c1=O [Compound 104] | – | – | –

Continued, molecule first:

Structure (SMILES) | IC50 [1] | IC50 [3] | IC50 [2] | IC50 [4] | IC50 [5]
CN1C(=O)c2c(ncn2CC(=O)Nc2nc(-c3ccc(Br)cc3)cs2)N2CCN=C12 [Compound 1] | 921 nM | > 10000 nM | > 10000 nM | > 10000 nM | > 10000 nM
CN1C(=O)c2c(ncn2CC(=O)Nc2nc(-c3ccc(C(C)(C)C)cc3)cs2)N2CCN=C12 [Compound 2] | 382 nM | 3840 nM | > 10000 nM | > 10000 nM | > 10000 nM
Cn1c(=O)c2c(CC(=O)Nc3nc(-c4ccc(Cl)c(Cl)c4)cs3)cccc2n(C)c1=O [Compound 4] | 98.3 nM | > 1000 nM | > 10000 nM | > 10000 nM | > 10000 nM
Cn1c(=O)c2c(CC(=O)Nc3nc(-c4ccc(I)cc4)cs3)cccc2n(C)c1=O [Compound 5] | 66.3 nM | > 1000 nM | > 10000 nM | > 10000 nM | > 10000 nM
Cc1ccc(-c2csc(NC(=O)Cc3cccc4c3c(=O)n(C)c(=O)n4C)n2)cc1 [Compound 6] | 97.4 nM | > 1000 nM | > 10000 nM | > 10000 nM | > 10000 nM
Cn1c(=O)c2c(CC(=O)Nc3ccn(-c4ccc(Cl)cc4)n3)cccc2n(C)c1=O [Compound 8] | 55 nM | > 1000 nM | > 10000 nM | > 10000 nM | > 10000 nM
Cn1c(=O)c2c(CC(=O)Nc3nc(-c4cccc(Cl)c4)cs3)cccc2n(C)c1=O [Compound 9] | 102 nM | > 1000 nM | > 1000 nM | > 10000 nM | > 10000 nM
Cn1c(=O)c2c(CC(=O)Nc3nc(-c4ccc(C(C)(C)C)cc4)cs3)cccc2n(C)c1=O [Compound 12] | 51.7 nM | > 1000 nM | > 10000 nM | > 10000 nM | > 10000 nM
CCC(=N\O)/C(C)=C/c1ccc(F)cc1 [Compound 89] | – | > 10000 nM | > 10000 nM | > 10000 nM | > 10000 nM
Cn1c(=O)c2c(CC(=O)Nc3nc(-c4ccc(F)c(C(F)(F)F)c4F)cs3)c(Cl)oc2n(C)c1=O [Compound 101] | 10.1 nM | > 1000 nM | – | – | –
